Legend:
primary tumors = test: in vitro chemosensitivity assay of primary tumors (ATP-measurement, AUC of dose-response curve); format: cell-based; conditions: 6 days of incubation; for response (chemosensitivity) of tumors of the basal subtype: basal molecular subtype (MLPH<2000); for response (chemosensitivity) of tumors of the luminal A subtype: luminal A molecular subtype (ESR1 >6000, PGR >160)
Description: In a second step for the identification of an optimal predictive gene signature in vitro chemosensitivity assays of primary tumors are performed to determine the response of a tumor towards a single chemotherapeutic agent. In said in vitro chemosensitivity assays the primary tumors were cultivated in different assays with increasing concentrations of the agents. After 6 days of incubation the vitality of the tumor cells were determined with an ATP-measurement. Hereby, the growing inhibition for the different agent concentrations could be determined and a dose-response curve could be provided. For each tumor the Area under the dose-response curve (AUC) could be determined for the different agents. The AUC is used to evaluate the response of a tumor towards a chemotherapeutic agent. The bigger the AUC, the more sensitive is the tumor towards the agent. The tumor samples were classified according to their sensitivity towards the agents into three classes (resistant, intermediate, sensitive) via the tertiles of the AUC arrangement.

NCI 60 cell lines = test: NCI 60 cell line chemosensitivity (GI-50); format: cell-based; conditions: AKR1C1 cut-off score 5000
Description: In this study several tumor cell lines of different cancer types were tested for their sensitivity towards several chemotherapeutic agents. The GI-50 value (concentration, where half of the tumor cells are inhibited regarding growing) for Paclitaxel was used to test, whether AKR1C1 is appropriate for a prediction of a Paclitaxel sensitivity in cell lines. […] The defined cut-off score (5000) allowed a significant classification (p=0.0049) of the resistant and sensitive tumor cells of the NCI 60 cell lines (FIG. 14).
NCI 60 cell lines were classified with the marker gene AKR1C1 (cut-off score 5000). Onto the ordinate the concentration of Palitaxel is depicted, which is needed for the inhibition of half of the cells (GI-50). Altogether for Paclitaxel 54 GI-50 values for the cell lines were provided.

Row | Compound | response (chemosensitivity) of tumors of the basal subtype (primary tumors) | response (chemosensitivity) of tumors of the luminal A subtype (primary tumors) | sensitivity (GI-50) of cell lines with high expression of AKR1C1 (NCI 60 cell lines)
1 | COc1cccc2c1C(=O)c1c(O)c3c(c(O)c1C2=O)C[C@@](O)(C(=O)CO)C[C@@H]3O[C@H]1C[C@H](N)[C@@H](O)[C@H](C)O1 [Epirubicin] | particularly sensitive | resistant | 
2 | CC(=O)O[C@H]1C(=O)[C@@]2(C)[C@H]([C@H](OC(=O)c3ccccc3)[C@]3(O)C[C@H](OC(=O)[C@H](O)[C@@H](NC(=O)c4ccccc4)c4ccccc4)C(C)=C1C3(C)C)[C@]1(OC(C)=O)CO[C@@H]1C[C@@H]2O [Paclitaxel] | particularly sensitive | resistant | mainly are resistant
